Test results reported in ChEMBL document CHEMBL4715723, “Discovery and development of benzo-[1,2,4]-triazolo-[1,4]-oxazepine GPR142 agonists for the treatment of diabetes” (Bioorg Med Chem Lett, 2016).
Blank lines part the entries; values can stand above or below the compound they belong to. The source made the active and inactive calls. The rule behind the calls is not given here.

Assays:
[1] = target: T1, Probable G-protein coupled receptor 142 (Homo sapiens, UniProt Q7Z601); test: Agonist activity at human GPR142 expressed in CHO cells measured for 3 mins by Fluo-4M dye based FLIPR assay; assay type: cell-based; settings: read-out: IC50 (the source's name)
T1 sequence (Q7Z601 whole entry): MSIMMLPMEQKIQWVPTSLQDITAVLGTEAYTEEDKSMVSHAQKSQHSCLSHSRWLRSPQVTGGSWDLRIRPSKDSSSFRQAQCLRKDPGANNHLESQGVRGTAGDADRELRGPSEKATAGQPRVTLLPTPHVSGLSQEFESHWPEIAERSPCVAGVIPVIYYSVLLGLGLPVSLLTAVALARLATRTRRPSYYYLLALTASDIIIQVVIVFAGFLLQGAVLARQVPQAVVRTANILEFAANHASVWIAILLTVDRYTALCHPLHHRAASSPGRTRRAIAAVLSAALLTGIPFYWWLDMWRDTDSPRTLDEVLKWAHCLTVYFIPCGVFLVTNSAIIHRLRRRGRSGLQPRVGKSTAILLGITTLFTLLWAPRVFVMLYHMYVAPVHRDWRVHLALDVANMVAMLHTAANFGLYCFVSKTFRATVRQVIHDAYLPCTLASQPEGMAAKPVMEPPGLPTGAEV

[2] = target: T2, Probable G-protein coupled receptor 142 (Mus musculus, UniProt Q7TQN9); test: Agonist activity at mouse GPR142 expressed in CHO cells measured for 3 mins by Fluo-4M dye based FLIPR assay; assay type: cell-based; settings: read-out: IC50 (the source's name)
T2 sequence (Q7TQN9 whole entry): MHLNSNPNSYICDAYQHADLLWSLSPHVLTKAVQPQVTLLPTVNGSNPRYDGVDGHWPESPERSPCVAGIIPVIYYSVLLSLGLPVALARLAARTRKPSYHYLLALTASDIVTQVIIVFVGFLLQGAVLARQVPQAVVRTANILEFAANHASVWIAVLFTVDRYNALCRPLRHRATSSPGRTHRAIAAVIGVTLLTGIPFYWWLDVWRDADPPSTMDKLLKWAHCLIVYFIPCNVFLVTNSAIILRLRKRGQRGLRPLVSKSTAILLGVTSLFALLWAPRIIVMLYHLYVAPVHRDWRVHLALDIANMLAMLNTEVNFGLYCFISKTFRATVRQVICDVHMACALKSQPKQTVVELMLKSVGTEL

[3] = target: Cytochrome P450 2C9 (Homo sapiens, UniProt P11712); test: Inhibition of human liver microsomes CYP2C9 using diclofenac as substrate by MUX-MS/MS analysis; assay type: ADME, Microsome
[4] = target: Cytochrome P450 3A4 (Homo sapiens, UniProt P08684); test: Inhibition of human liver microsomes CYP3A4 using testosterone as substrate by MUX-MS/MS analysis; assay type: ADME, Microsome
[5] = target: Cytochrome P450 2D6 (Homo sapiens, UniProt P10635); test: Inhibition of human liver microsomes CYP2D6 using dextromethorphan as substrate by MUX-MS/MS analysis; assay type: ADME, Microsome
[6] = target: Voltage-gated inwardly rectifying potassium channel KCNH2 (Homo sapiens, UniProt Q12809); test: Inhibition of human ERG expressed in HEK293 cells assessed as reduction in S35-MK-0499 binding; assay type: cell-based
[7] = Protein binding in rat plasma assessed as unbound fraction; assay type: ADME, cell-free
[8] = Half life in rat at 2 mg/kg, po or 1 mg/kg, iv; assay type: ADME, organism-based; settings: in vivo
[9] = system: Mus musculus; test: Antidiabetic activity in […] mouse assessed as reduction in dextrose-induced blood glucose peak administered po before dextrose stimulation and measured upto 120 mins after dextrose administration by OGTT assay; assay type: functional, organism-based; settings: time min <=120
[10] = Oral bioavailability in rat at 2 mg/kg; assay type: ADME, organism-based; settings: in vivo
[11] = Volume of distribution at steady state in rat at 2 mg/kg, po or 1 mg/kg, iv; assay type: ADME, organism-based; settings: in vivo, read-out: Vdss
[12] = Clearance in rat at 2 mg/kg, po or 1 mg/kg, iv; assay type: ADME, organism-based; settings: in vivo
[13] = system: Mus musculus; test: Antidiabetic activity in […] mouse harboring GPR142 deficient assessed as reduction in dextrose-induced blood glucose peak at 30 mg/kg, po administered before dextrose stimulation and measured upto 120 mins after dextrose administration by OGTT assay; assay type: functional, organism-based; settings: time min <=120

Voltage-gated inwardly rectifying potassium channel KCNH2, sequence (Q12809 whole entry): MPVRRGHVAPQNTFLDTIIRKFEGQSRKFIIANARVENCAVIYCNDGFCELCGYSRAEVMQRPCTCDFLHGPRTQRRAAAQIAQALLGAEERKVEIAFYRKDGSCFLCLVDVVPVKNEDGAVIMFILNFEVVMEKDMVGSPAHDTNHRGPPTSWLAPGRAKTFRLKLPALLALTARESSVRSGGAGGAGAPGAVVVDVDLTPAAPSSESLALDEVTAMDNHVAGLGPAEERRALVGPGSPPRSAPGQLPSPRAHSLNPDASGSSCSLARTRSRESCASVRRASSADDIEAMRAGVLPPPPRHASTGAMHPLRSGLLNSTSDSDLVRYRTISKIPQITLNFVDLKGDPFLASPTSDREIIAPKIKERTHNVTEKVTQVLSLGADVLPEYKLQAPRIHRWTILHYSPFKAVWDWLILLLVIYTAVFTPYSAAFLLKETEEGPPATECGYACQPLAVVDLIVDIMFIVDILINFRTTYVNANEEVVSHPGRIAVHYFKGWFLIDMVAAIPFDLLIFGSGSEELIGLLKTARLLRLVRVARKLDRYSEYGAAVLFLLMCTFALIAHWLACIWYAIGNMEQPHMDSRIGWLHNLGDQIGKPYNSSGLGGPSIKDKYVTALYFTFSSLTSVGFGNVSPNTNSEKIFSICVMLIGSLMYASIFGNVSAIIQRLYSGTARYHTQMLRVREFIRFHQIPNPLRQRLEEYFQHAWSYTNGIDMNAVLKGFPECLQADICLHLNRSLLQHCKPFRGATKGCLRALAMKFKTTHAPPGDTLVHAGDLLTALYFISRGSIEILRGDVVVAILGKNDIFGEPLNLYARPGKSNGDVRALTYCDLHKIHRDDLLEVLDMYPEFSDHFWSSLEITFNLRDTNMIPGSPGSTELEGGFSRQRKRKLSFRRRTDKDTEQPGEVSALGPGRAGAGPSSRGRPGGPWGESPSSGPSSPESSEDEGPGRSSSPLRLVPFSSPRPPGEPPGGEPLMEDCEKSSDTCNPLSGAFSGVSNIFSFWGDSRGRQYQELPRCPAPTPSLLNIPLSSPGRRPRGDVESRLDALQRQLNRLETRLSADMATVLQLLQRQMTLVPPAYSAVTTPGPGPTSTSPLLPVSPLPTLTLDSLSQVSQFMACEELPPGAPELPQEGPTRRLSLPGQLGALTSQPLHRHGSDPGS
Cytochrome P450 2D6, sequence (P10635 whole entry): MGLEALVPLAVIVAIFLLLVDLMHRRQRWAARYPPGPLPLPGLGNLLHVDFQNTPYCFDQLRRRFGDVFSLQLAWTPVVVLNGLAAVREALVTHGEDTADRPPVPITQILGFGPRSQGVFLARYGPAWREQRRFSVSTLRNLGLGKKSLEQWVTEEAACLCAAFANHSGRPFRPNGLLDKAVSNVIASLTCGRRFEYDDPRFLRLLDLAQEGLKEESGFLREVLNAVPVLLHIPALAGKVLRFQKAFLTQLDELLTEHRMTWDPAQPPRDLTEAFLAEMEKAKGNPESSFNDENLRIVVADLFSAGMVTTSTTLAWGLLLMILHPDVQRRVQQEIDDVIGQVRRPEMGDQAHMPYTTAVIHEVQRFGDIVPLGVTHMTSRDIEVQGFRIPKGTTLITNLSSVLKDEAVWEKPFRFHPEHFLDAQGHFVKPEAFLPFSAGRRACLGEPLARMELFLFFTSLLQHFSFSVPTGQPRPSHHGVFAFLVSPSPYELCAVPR
Cytochrome P450 3A4, sequence (P08684 whole entry): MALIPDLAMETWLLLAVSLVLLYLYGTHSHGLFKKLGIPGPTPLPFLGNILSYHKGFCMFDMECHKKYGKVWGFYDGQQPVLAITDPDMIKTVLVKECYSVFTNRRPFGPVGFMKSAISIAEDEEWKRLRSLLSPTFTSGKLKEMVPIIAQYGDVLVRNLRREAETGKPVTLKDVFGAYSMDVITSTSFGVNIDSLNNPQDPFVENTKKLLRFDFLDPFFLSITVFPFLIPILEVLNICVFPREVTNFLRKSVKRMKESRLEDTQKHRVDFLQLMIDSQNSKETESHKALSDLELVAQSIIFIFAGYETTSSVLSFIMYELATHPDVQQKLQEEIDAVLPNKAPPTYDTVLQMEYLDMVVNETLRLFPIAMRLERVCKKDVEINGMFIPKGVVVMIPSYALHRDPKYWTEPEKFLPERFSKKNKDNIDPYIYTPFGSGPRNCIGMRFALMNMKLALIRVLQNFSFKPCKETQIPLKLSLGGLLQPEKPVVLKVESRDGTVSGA
Cytochrome P450 2C9, sequence (P11712 whole entry): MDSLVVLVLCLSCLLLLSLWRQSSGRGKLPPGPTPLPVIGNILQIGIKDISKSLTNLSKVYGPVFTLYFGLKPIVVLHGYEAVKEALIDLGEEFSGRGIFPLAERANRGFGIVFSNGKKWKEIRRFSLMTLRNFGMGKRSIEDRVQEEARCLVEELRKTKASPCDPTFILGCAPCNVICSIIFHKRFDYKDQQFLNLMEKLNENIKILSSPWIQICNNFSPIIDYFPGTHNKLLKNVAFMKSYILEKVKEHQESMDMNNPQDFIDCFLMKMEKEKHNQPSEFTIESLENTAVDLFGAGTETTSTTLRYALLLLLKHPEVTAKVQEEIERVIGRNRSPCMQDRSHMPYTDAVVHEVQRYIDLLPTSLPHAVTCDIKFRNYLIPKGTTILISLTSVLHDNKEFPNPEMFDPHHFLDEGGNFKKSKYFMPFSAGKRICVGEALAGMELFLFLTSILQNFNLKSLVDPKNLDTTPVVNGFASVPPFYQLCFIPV

- EC50 [1]: 394 nM
- EC50 [2]: 1180 nM
SMILES: COc1cccc(NC(=O)N2CCOc3ccc(-c4ccncc4C)cc3C2)c1

- EC50 [1]: 13100 nM
- EC50 [2]: 604 nM
SMILES: O=C(Nc1ccccc1F)N1CCOc2ccc(-c3ccncc3)cc2C1

- IC50 [3]: 1960 nM
- EC50 [1]: 63 nM
- IC50 [4]: 48300 nM
- IC50 [5]: 326 nM
SMILES: Cc1cc(-c2ccc3c(c2)-c2nnc(Nc4cccc(C(F)(F)F)c4)n2CCO3)ccn1
- IC50 [6]: 388 nM

- EC50 [1]: 224 nM
- EC50 [2]: 413 nM
SMILES: O=C(Nc1cccc(F)c1)N1CCOc2ccc(-c3ccncc3)cc2C1

- fraction unbound [7]: 0.0111
- half-life [8]: 2 h
- IC50 [3]: 5260 nM
- EC50 [1]: 56 nM
- bioavailability [10]: 67%
- IC50 [4]: 8390 nM
- Vd [11]: 1.6 L/kg
- IC50 [5]: 12100 nM
- clearance [12]: 8.9 mL/min/kg
SMILES: Cc1cc(-c2ccc3c(c2)-c2nnc(Oc4cccc(Cl)c4F)n2CCO3)ccn1
- Activity [9]: Dose-dependent effect
- IC50 [6]: 2410 nM

- EC50 [1]: 132 nM
- EC50 [2]: 613 nM
SMILES: O=C(Nc1ccc(F)c(Cl)c1)N1CCOc2ccc(-c3ccncc3)cc2C1

- EC50 [1]: 158 nM
- EC50 [2]: 110 nM
SMILES: O=C(Nc1cccc(C(F)(F)F)c1)N1CCOc2ccc(-c3ccncc3)cc2C1

- IC50 [3]: > 50000 nM
- EC50 [1]: 58 nM
- IC50 [4]: > 50000 nM
- IC50 [5]: 7020 nM
SMILES: Cc1cc(-c2ccc3c(c2)-c2nnc(Oc4cccc(Cl)c4)n2CCO3)ccn1
- IC50 [6]: 931 nM

- IC50 [3]: 14300 nM
- EC50 [1]: 78 nM
- IC50 [4]: > 50000 nM
- IC50 [5]: 1950 nM
SMILES: Cc1cc(-c2ccc3c(c2)-c2nnc(Oc4cccc(OC(F)(F)F)c4)n2CCO3)ccn1
- IC50 [6]: 693 nM

- EC50 [1]: 163 nM
- EC50 [2]: 59 nM
SMILES: O=C(Nc1cccc(Cl)c1F)N1CCOc2ccc(-c3ccncc3)cc2C1

- EC50 [1]: 1220 nM
- EC50 [2]: 2610 nM
SMILES: O=C(Nc1ccc(F)cc1)N1CCOc2ccc(-c3ccncc3)cc2C1

- fraction unbound [7]: 0.0015
- half-life [8]: 0.71 h
- EC50 [1]: 140 nM
- EC50 [2]: 138 nM
- bioavailability [10]: 6%
- Vd [11]: 3.4 L/kg
- IC50 [5]: 76000 nM
- clearance [12]: 88.6 mL/min/kg
SMILES: O=C(Nc1ccc(Cl)c(Cl)c1)N1CCOc2ccc(-c3ccncc3)cc2C1
- IC50 ([6]; hek293): 2030 nM

- EC50 [1]: > 20000 nM
- EC50 [2]: 2950 nM
SMILES: O=C(Nc1ccc(Cl)c(Cl)c1)N1CCc2ccc(-c3ccncc3)cc21

- EC50 [1]: 1600 nM
SMILES: COc1cccc(NC(=O)N2CCOc3ccc(-c4ccncn4)cc3C2)c1

- EC50 [1]: 793 nM
- EC50 [2]: 851 nM
SMILES: O=C(Nc1ccccc1)N1CCOc2ccc(-c3ccncc3)cc2C1

- EC50 [1]: 80 nM
- EC50 [2]: 79 nM
SMILES: N#Cc1cccc(NC(=O)N2CCOc3ccc(-c4ccncc4)cc3C2)c1

- fraction unbound [7]: 0.0949
- half-life [8]: 2 h
- IC50 [3]: 1390 nM
- EC50 [1]: 45 nM
- IC50 [4]: > 50000 nM
- Vd [11]: 1.9 L/kg
- IC50 [5]: 1720 nM
- clearance [12]: 11 mL/min/kg
SMILES: Cc1cc(-c2ccc3c(c2)-c2nnc(Nc4cccc(OC(F)(F)F)c4)n2CCO3)ccn1
- IC50 [6]: 236 nM

- fraction unbound [7]: 0.0041
- half-life [8]: 1 h
- IC50 [3]: 934 nM
- EC50 [1]: 63 nM
- bioavailability [10]: 40%
- IC50 [4]: 1610 nM
- Vd [11]: 2.2 L/kg
- IC50 [5]: 802 nM
- clearance [12]: 23.9 mL/min/kg
SMILES: FC(F)(F)Oc1cccc(Nc2nnc3n2CCOc2ccc(-c4ccncc4)cc2-3)c1
- Activity [9]: Dose-dependent effect
- Activity [13]: inactive
- IC50 [6]: 605 nM

- fraction unbound [7]: 0.0086
- half-life [8]: 0.66 h
- EC50 [1]: 108 nM
- EC50 [2]: 164 nM
- bioavailability [10]: 1%
- Vd [11]: 2 L/kg
- clearance [12]: 56.1 mL/min/kg
SMILES: O=C(Nc1cccc(Cl)c1)N1CCOc2ccc(-c3ccncc3)cc2C1

- EC50 [1]: 517 nM
- EC50 [2]: 92 nM
SMILES: COc1ccccc1NC(=O)N1CCOc2ccc(-c3ccncc3)cc2C1

- EC50 [1]: 1850 nM
- EC50 [2]: 1050 nM
SMILES: O=C(Nc1ccc(Cl)c(Cl)c1)N1CCc2ccc(-c3ccncc3)cc2C1

- EC50 [1]: 839 nM
- EC50 [2]: 590 nM
SMILES: O=C(Nc1ccc(Cl)c(Cl)c1)N1CCCc2ccc(-c3ccncc3)cc2C1

- EC50 [1]: 249 nM
- EC50 [2]: 305 nM
SMILES: COc1cccc(NC(=O)N2CCOc3ccc(-c4ccncc4)cc3C2)c1

- EC50 [1]: 343 nM
- EC50 [2]: 62 nM
SMILES: O=C(Nc1cccc(-c2ccccc2)c1)N1CCOc2ccc(-c3ccncc3)cc2C1
